Source: ChEMBL document CHEMBL5338706, “Discovery of a potent and selective proteolysis targeting chimera (PROTAC) degrader of NSD3 histone methyltransferase” (Eur J Med Chem, 2022)
Calls of active or inactive are those of the source. No cut-off for these calls is given here.

Tests used:
NCI-H1703 [1] = test: Induction of apoptosis in human NCI-H1703 cells assessed as necrotic cells at 3 uM measured after 72 hrs by PI/Annexin-V staining based flow cytometry analysis (reference value: 2.80% ); type: functional
NCI-H520 [2] = test: Induction of apoptosis in human NCI-H520 cells assessed as decrease in NSD3 protein expression at 10 uM by measuring fold change by Western blot analysis relative to control; type: functional
NCI-H1703 [3] = test: Induction of apoptosis in human NCI-H1703 cells assessed as early apoptotic cells at […] measured after 72 hrs by PI/Annexin-V staining based flow cytometry analysis (reference value: 1.47% ); type: functional; conditions: dose 7.5 µM
[4] = biological target: Histone-lysine N-methyltransferase, H3 lysine-36 specific (Homo sapiens) (UniProt Q96L73); test: Induction of NSD1 degradation in human A549 cells at 5 to 10 uM incubated for 72 hrs by Western blot analysis; type: cell-based; conditions: dose 5-10 µM
Sequence of Histone-lysine N-methyltransferase, H3 lysine-36 specific (Homo sapiens) (Q96L73 whole entry): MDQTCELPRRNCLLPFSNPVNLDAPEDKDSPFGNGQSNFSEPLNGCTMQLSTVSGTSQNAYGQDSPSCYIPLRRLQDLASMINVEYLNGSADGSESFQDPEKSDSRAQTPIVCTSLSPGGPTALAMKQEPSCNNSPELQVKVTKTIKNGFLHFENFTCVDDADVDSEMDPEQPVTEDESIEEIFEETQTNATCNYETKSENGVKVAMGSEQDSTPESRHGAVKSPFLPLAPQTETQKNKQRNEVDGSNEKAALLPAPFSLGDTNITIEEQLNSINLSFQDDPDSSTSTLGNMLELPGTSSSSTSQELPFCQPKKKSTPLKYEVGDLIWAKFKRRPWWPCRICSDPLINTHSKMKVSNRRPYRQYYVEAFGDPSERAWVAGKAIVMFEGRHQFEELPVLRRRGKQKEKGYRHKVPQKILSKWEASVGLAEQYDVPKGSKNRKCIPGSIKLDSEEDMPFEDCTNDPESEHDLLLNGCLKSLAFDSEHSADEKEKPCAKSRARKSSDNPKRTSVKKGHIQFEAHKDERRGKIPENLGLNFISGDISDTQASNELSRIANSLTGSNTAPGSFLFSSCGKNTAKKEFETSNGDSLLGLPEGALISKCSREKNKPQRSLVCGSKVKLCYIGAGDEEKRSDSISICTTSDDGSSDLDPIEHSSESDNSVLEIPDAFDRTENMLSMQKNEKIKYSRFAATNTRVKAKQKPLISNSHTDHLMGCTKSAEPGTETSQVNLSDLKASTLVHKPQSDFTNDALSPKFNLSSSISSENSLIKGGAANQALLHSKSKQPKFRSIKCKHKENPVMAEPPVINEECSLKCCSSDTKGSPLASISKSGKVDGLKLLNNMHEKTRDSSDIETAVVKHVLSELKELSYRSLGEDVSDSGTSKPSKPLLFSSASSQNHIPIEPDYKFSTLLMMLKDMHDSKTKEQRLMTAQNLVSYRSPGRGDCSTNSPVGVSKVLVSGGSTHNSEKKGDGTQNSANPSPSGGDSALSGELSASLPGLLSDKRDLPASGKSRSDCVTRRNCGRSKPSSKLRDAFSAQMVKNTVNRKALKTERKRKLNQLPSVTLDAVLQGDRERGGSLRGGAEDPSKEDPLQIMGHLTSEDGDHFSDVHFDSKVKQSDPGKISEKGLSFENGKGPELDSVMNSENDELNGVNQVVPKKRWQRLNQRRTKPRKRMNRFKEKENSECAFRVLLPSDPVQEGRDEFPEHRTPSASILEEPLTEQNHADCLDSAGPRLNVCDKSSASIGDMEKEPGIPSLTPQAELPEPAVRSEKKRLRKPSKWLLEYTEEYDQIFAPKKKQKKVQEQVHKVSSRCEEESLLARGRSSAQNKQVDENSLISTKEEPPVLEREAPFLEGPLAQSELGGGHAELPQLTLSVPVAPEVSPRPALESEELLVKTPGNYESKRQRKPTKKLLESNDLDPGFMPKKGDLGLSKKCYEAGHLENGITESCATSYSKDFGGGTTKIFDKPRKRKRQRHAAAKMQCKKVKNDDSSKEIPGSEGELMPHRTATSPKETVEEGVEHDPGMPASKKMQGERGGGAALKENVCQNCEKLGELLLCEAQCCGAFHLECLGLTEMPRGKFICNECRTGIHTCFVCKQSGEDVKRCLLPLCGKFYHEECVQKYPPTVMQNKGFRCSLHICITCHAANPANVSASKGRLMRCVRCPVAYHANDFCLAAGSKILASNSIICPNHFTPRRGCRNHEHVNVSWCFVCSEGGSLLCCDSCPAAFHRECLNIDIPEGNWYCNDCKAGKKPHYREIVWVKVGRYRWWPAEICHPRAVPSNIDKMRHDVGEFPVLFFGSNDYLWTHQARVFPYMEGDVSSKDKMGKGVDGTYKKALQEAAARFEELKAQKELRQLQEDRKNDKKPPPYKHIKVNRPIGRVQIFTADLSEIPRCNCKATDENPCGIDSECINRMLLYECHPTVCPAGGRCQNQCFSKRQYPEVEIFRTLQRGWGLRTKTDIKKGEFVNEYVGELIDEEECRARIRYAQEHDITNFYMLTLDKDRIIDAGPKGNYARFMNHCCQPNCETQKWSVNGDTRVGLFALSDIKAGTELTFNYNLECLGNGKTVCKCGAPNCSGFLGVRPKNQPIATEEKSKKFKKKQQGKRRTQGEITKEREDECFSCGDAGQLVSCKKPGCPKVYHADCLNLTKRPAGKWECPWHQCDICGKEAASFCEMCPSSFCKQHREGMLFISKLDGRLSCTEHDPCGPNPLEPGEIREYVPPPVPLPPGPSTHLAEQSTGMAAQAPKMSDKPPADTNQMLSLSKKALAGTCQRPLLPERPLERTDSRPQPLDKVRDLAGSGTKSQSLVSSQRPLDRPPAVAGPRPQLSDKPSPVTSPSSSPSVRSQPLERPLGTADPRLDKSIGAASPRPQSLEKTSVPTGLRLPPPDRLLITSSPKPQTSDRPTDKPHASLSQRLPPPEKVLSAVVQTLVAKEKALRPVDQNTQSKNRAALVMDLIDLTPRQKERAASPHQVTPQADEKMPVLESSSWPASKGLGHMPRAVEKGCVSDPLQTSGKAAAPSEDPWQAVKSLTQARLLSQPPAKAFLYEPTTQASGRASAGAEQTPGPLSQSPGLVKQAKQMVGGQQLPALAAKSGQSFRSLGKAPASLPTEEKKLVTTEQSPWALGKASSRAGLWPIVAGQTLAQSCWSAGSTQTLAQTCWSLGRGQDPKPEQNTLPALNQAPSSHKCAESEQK

NCI-H1703 [5] = test: Downregulation of IGFBP3 in human NCI-H1703 cells at […] measured after 72 hrs by RNA sequencing assay; type: functional, cell-based; conditions: dose 7.5 µM
NCI-H520 [6] = test: Downregulation of CyclinD1 level in human NCI-H520 cells at 3 to […] by Western blot analysis; type: functional, cell-based; conditions: dose 3-7.5 µM
[7] = Downregulation of Cyclin D1 level in human NCI-H1703 cells at 3 uM by measuring fold change by Western blot analysis relative to control; type: functional
NCI-H1703 [8] = test: Induction of cell cycle arrest in human NCI-H1703 cells assessed as increase accumulation of cells at G2/M phase at […] incubated for 48 hrs by propidium iodide staining based analysis; type: functional; conditions: dose 7.5 µM
[9] = Downregulation of NSD3 level in human NCI-H520 cells at 5 uM by measuring fold change by Western blot analysis relative to control; type: functional
NCI-H1703 [10] = test: Induction of apoptosis in human NCI-H1703 cells assessed as viable cells at 5 uM measured after 72 hrs by PI/Annexin-V staining based flow cytometry analysis (reference value: 92.7% ); type: functional; conditions: read-out: Activity
[11] = Downregulation of c-Myc level in human NCI-H520 cells at 5 uM by measuring fold change by Western blot analysis relative to control; type: functional
[12] = Downregulation of CDC25A level in human NCI-H1703 cells at 3 uM by measuring fold change by Western blot analysis relative to control; type: functional
NCI-H1703 [13] = test: Downregulation of CyclinD1 level in human NCI-H1703 cells at 3 to […] by Western blot analysis; type: functional, cell-based; conditions: dose 3-7.5 µM
NCI-H520 [14] = test: Induction of apoptosis in human NCI-H520 cells assessed as decrease in Bcl-XL protein expression at 5 to 10 uM by Western blot analysis; type: functional, cell-based; conditions: dose 5-10 µM
NCI-H1703 [15] = test: Downregulation of CDC25A in human NCI-H1703 cells measured after 72 hrs by RT-qPCR method; type: functional, cell-based; conditions: dose 3-7.5 µM
NCI-H1703 [16] = test: Induction of apoptosis in human NCI-H1703 cells assessed as viable cells at 3 uM measured after 72 hrs by PI/Annexin-V staining based flow cytometry analysis (reference value: 92.7% ); type: functional; conditions: read-out: Activity
NCI-H1703 [17] = test: Downregulation of CDC25A level in human NCI-H1703 cells at 3 to […] by Western blot analysis; type: functional, cell-based; conditions: dose 3-7.5 µM
NCI-H520 [18] = test: Induction of apoptosis in human NCI-H520 cells assessed as decrease in MCL-1 protein expression at 5 uM by measuring fold change by Western blot analysis relative to control; type: functional
NCI-H520 [19] = test: Induction of apoptosis in human NCI-H520 cells assessed as decrease in MCL-1 protein expression at 5 to 10 uM by Western blot analysis; type: functional, cell-based; conditions: dose 5-10 µM
NCI-H1703 [20] = test: Induction of apoptosis in human NCI-H1703 cells assessed as decrease in MCL-1 protein expression at […] by measuring fold change by Western blot analysis relative to control; type: functional; conditions: dose 7.5 µM
A549 = test: Antitumor activity against human A549 cells xenografted mouse model assessed as reduction in NSD3 expression level at 100 mg/kg, ip measured within 36 hrs by Western blot analysis; type: functional, organism-based
[21] = Downregulation of CDC25A level in human NCI-H1703 cells at […] by measuring fold change by Western blot analysis relative to control; type: functional; conditions: dose 7.5 µM
[22] = Downregulation of NSD3 level in human NCI-H520 cells at 3 uM by measuring fold change by Western blot analysis relative to control; type: functional
NCI-H1703 [23] = test: Induction of apoptosis in human NCI-H1703 cells assessed as late apoptotic cells at 3 uM measured after 72 hrs by PI/Annexin-V staining based flow cytometry analysis (reference value: 3.00% ); type: functional
NCI-H520 [24] = test: Induction of apoptosis in human NCI-H520 cells assessed as decrease in NSD3 protein expression at 5 uM by measuring fold change by Western blot analysis relative to control; type: functional
NCI-H1703 [25] = test: Induction of apoptosis in human NCI-H1703 cells assessed as necrotic cells at […] measured after 72 hrs by PI/Annexin-V staining based flow cytometry analysis (reference value: 2.80% ); type: functional; conditions: dose 7.5 µM
NCI-H1703 [26] = test: Induction of apoptosis in human NCI-H1703 cells assessed as viable cells at 10 uM measured after 72 hrs by PI/Annexin-V staining based flow cytometry analysis (reference value: 92.7% ); type: functional; conditions: read-out: Activity

In the case of `Cc1cc(CNCCCCCCCCCCC(=O)N[C@H](C(=O)N2C[C@H](O)C[C@H]2C(=O)N[C@@H](C)c2ccc(-c3scnc3C)cc2)C(C)(C)C)cc(C)c1-c1ncn(C)c1-c1ccnc2cc(F)ccc12`, the Activity (NCI-H1703 [1]) is reported as 1.34%, the “fold change (FC)” value (NCI-H520 [2]) is reported as 0.49 and the Activity (NCI-H1703 [3]) is reported as 3.68%. For the same compound, the Activity [4] was “inactive”, the Activity (NCI-H1703 [5]) was “Active” and the Activity (NCI-H520 [6]) was “Active”. For the same compound, the “fold change (FC)” value [7] was 0.84, the Activity (NCI-H1703 [8]) was “Active” and the “fold change (FC)” value [9] was 0.7. For the same compound, the viability at 5 µM (NCI-H1703 [10]) was 81.2%, the “fold change (FC)” value [11] was 0.97 and the “fold change (FC)” value [12] was 0.81. For the same compound, the Activity (NCI-H1703 [13]) was “Active”, the Activity (NCI-H520 [14]) was “Active” and the Activity (NCI-H1703 [15]) was “Dose-Dependent Effect”. For the same compound, the viability at 3 µM (NCI-H1703 [16]) was 94.2%, the Activity (NCI-H1703 [17]) was “Active” and the “fold change (FC)” value (NCI-H520 [18]) was 0.86. For the same compound, the Activity (NCI-H520 [19]) was “Active”, the “fold change (FC)” value (NCI-H1703 [20]) was 0.54 and the Activity (A549) was “Active”. For the same compound, the “fold change (FC)” value [21] was 0.77, the “fold change (FC)” value [22] was 0.67 and the Activity (NCI-H1703 [23]) was 3%. For the same compound, the “fold change (FC)” value (NCI-H520 [24]) was 0.83, the Activity (NCI-H1703 [25]) was 2.99% and the viability at 10 µM (NCI-H1703 [26]) was 7.76%.
